Paper PMC6348443 (Journal of Medicinal Chemistry, 2018)
“Also recorded” adds a separate entry of the source. Where a name gives a salt, the structure may show the parent alone.

Key:
[1] = molecular target: T1, KOR (Homo sapiens, UniProt P41145); test: [35S]GTPγS binding assay, CHO-hKOR membranes; type: biochemical; details: for EC50: [35S]GTPγS, CHO human KOR membranes, read-out: KOR EC50; for Emax: relative to reference full agonist U69,593, read-out: KOR % stim.
T1 construct: host or cells: CHO (CHO-hKOR)

[2] = molecular target: T2, DOR (Rattus norvegicus, UniProt P33533); test: competition radioligand binding, rat brain membranes, [3H][Ile5,6]deltorphin II; details: rat brain membranes; read-out: opioid receptor binding Ki DOR
T2 construct: Membranes were prepared from Sprague-Dawley rat brains or guinea-pig brains according to the described procedures; tissue Labortierkunde und Laborgenetik, Medizinische Universität Wien; host or cells: Sprague-Dawley rat brain without cerebella

[3] = system: male CD1 mice; test: acetic acid-induced writhing assay after sc administration; type: in vivo, mouse; details: Mus musculus, 0.5 h, read-out: ED50 (95% CI), mice, sc, inhibition of writhing 30 min after drug administration
[4] = molecular target: T3, DOR (Homo sapiens, UniProt P41143); test: [35S]GTPγS binding assay, CHO-hDOR membranes; type: biochemical; details: for EC50: [35S]GTPγS, CHO human DOR membranes; for Emax: relative to reference full agonist DPDPE, read-out: DOR % stim.
T3 construct: host or cells: CHO (CHO-hDOR)

[5] = molecular target: T3, DOR; test: competition radioligand binding, CHO cell membranes expressing human DOR, [3H]diprenorphine
Experimental: (§1) Membranes from CHO cells expressing human opioid receptors were prepared in 50 mM Tris-HCl buffer (pH 7.7) according to a previously described procedure.[64] Cells expressing human opioid receptors grown at confluence were removed from the culture plates by scraping, homogenized in 50 mM Tris buffer (pH 7.7), using a Polytron homogenizer, then centrifuged once and washed by an additional centrifugation at 27 000g for 15 min, at 4 °C. The final pellet was resuspended in Tris buffer and stored at −80 °C until use. Protein content of brain and cell membrane preparation homogenates was determined by the method of Bradford using bovine serum albumin as the standard.[65]
(§2) Rat brain membranes were incubated with either [^3H]DAMGO (1 nM, 45 min, 35 °C) or [^3H][Ile^5,6]deltorphin II (0.5 nM, 45 min, 35 °C) for labeling MOR or DOR receptors, respectively. Guinea-pig brain membranes were incubated with [^3H]U69,593 (1 nM, 30 min, 30 °C) for labeling KOR. Binding assays with CHO cell membranes were conducted at 25 °C for 60 min using [^3H]DAMGO (1 nM) or [^3H]diprenorphine (0.2 nM) for labeling MOR or DOR, respectively. Nonspecific binding was determined using 10 μM naloxone (rodent brain) or 1–10 μM of the unlabeled counterpart of each radioligand (CHO cells). Reactions were terminated by rapid filtration through Whatman glass fiber GF/C filters. Filters were washed three times with 5 mL of ice-cold 50 mM Tris-HCl buffer (pH 7.4) using a Brandel M24R cell harvester (Gaithersburg, MD). Radioactivity retained on the filters was counted by liquid scintillation counting using a Beckman Coulter LS6500 (Beckman Coulter Inc., Fullerton, CA). All binding experiments were performed in duplicate and repeated at least three times.
(§3) aDetermined in competition radioligand binding assays using CHO cell membranes expressing
(§4) human MOR and DOR. Values represent the mean ± SEM of three independent experiments each

[6] = molecular target: T4, MOR (Rattus norvegicus, UniProt P33535); test: competition radioligand binding, rat brain membranes, [3H]DAMGO
T4 construct: Membranes were prepared from Sprague-Dawley rat brains or guinea-pig brains according to the described procedures; tissue Labortierkunde und Laborgenetik, Medizinische Universität Wien; host or cells: Sprague-Dawley rat brain without cerebella

[7] = molecular target: T5, MOR (Homo sapiens, UniProt P35372); test: [35S]GTPγS binding assay, CHO-hMOR membranes; type: biochemical; details: for EC50: [35S]GTPγS, CHO human MOR membranes, read-out: MOR EC50; for Emax: read-out: MOR % stim.
T5 construct: host or cells: CHO (CHO-hMOR)

[8] = molecular target: T5, MOR; test: competition radioligand binding, CHO cell membranes expressing human MOR, [3H]DAMGO
Experimental: as §1, §2, §3, §4

[9] = molecular target: T6, KOR (Cavia porcellus, UniProt P41144); test: competition radioligand binding, guinea-pig brain membranes, [3H]U69,593
T6 construct: Membranes were prepared from Sprague-Dawley rat brains or guinea-pig brains according to the described procedures; tissue Labortierkunde und Laborgenetik, Medizinische Universität Wien; host or cells: guinea-pig brain without cerebella

[10] = system: peripheral opioid receptors; test: antagonism by naloxone methiodide in the acetic acid-induced writhing assay; type: in vivo, mouse; details: sc co-administration with naloxone methiodide 1 mg/kg; agonist 50 or 200 μg/kg sc; 30 min
Text: To determine whether targeted 6-amino acid and 6-dipeptide analogues inhibit writhing behavior in mice through peripheral opioid receptors activation, we used naloxone methiodide.[27]
Values are shown as mean of writhes ± SEM (n = 6–7 mice per group). ***P < 0.001 vs control group; ^#P < 0.05, ^##P < 0.01 and ^###P < 0.001 vs agonist treated group, ANOVA with Tukey’s post hoc test.
Writhing was induced in male CD1 mice by ip injection of a 0.6% acetic acid aqueous solution as described previously.[48],[62] Groups of mice were administered sc different doses of test compound or saline (control), and 5 min prior to testing (25 min after drug or saline), each animal received an ip injection of acetic acid solution. Each mouse was placed in individual transparent Plexiglas chambers, and the number of writhes was counted during a 10 min observation period. […] For the antagonism study, naloxone methiodide was sc co-administered with the respective opioid agonist, and writhing was assessed as described above.

[11] = relative to reference full agonist DAMGO

| SMILES | EC50 [1] [nM] | Emax [1] [%] | Ki [2] [nM] | ED50 [3] [mg/kg] | EC50 [4] [nM] | Emax [4] [%] | Ki [5] [nM] | Ki ([6]; rat brain membranes, read-out: opioid receptor binding Ki MOR) [nM] | increase in MOR binding affinity vs comparator ([6]; rat brain, 17b vs 4b, 16a/b vs 7a/b, 22a/b vs 7a, 7b and 9b, 14a vs 14b) [times] | EC50 [7] [nM] | Emax [7, 11] [%] | Ki [8] [nM] | increased KOR affinity vs 6β analogue 14b ([9]; guinea-pig brain) [times] | Ki ([9]; guinea-pig brain membranes, read-out: opioid receptor binding Ki KOR) [nM] | increased agonist potency at DOR vs MOR ([4]; [35S]GTPγS EC50) [times] | functional profile at MOR (full/partial agonist) ([7]; full agonist ≥85% of the response to DAMGO) | MOR % stim. [7, 11] [%] | effect of naloxone methiodide on antinociceptive effect [10] | functional profile at KOR (full/partial agonist) ([1]; partial agonist <85% of the response to U69,593) |
| --- | --- | --- | --- | --- | --- | --- | --- | --- | --- | --- | --- | --- | --- | --- | --- | --- | --- | --- | --- |
| CO[C@@]12CCC(N[C@@H](CCC(=O)O)C(=O)O)[C@@H]3Oc4c(O)ccc5c4[C@@]31CCN(C)[C@@H]2C5 (stereo in doubt) [Compound 14a, (2S)-2-[(4,5α-Epoxy-3-hydroxy-14β-methoxy-17-methylmorphinan-6β-yl)-amino]pentanedioic Acid Dihydrochloride] | 1170 ± 448 | 68 ± 5 | 9.03 ± 0.7 | 0.0361 | 10.8 ± 2.1 | 98 ± 3 | 24 ± 11.8 | 1.45 ± 0.09 | 8 | 3.11 ± 1.32 | 105 ± 3 | 3.29 ± 0.61 | 14 | 87.2 ± 4.2 | – | – | – | – | – |
| CO[C@@]12CC[C@@H](N[C@@H](Cc3ccccc3)C(=O)O)[C@@H]3Oc4c(O)ccc5c4[C@@]31CCN(C)[C@@H]2C5 [Compound 4b] | 1170 ± 505 | 81 ± 9 | – | 0.579 | 0.48 ± 0.16 | 94 ± 8 | 1.12 ± 0.23 | – | – | 6.76 ± 3.16 | 99 | 4.15 ± 0.47 | – | – | 14 | full agonist | 99 ± 8 | – | – |
| CO[C@@]12CC[C@H](N[C@@H](CCCCN)C(=O)O)[C@@H]3Oc4c(O)ccc5c4[C@@]31CCN(C)[C@@H]2C5 [Compound 8a, (2S)-6-Amino-2-[(4,5α-epoxy-3-hydroxy-14β-methoxy-17-methylmorphinan-6α-yl)amino]hexanoic Acid Trihydrochloride] | 118 ± 26 | 79 ± 13 | – | 0.0206 | 152 ± 2 | 106 ± 4 | – | – | – | 2.25 ± 0.07 | 90 ± 8 | – | – | – | – | – | – | reversed | – |
| CO[C@@]12CC[C@@H](N[C@@H](Cc3c[nH]c4ccccc34)C(=O)O)[C@@H]3Oc4c(O)ccc5c4[C@@]31CCN(C)[C@@H]2C5 [Compound 10b, (2S)-2-[(4,5α-Epoxy-3-hydroxy-14β-methoxy-17-methylmorphinan-6β-yl)-amino]-3-(1H-indolo-3yl)propionic Acid Dihydrochloride] | 181 ± 49 | 87 ± 8 | – | 0.0927 | 2.18 ± 0.72 | 96 ± 5 | – | – | – | 1.64 ± 0.43 | 101 ± 11 | – | – | – | – | – | – | reversed; also recorded: antagonized | full agonists |
